Results reported in ChEMBL document CHEMBL1201862, “PubChem BioAssay data set” (2004).
Activity calls are given as the source filed them.

Experiments:
[1] = Luminescence Cell-Based Dose Response HTS to Identify Activators of Luciferase Translation or Activity in H4 […] Cells. [Related pubchem assays: 1829 (Project Summary), 1814 (Primary HTS)]; format: functional
[2] = viability loss in HepG2 hepatoma cells – cell-based, ATP luminescence, cherry-pick, activator set 2, cytotoxicity control, dose response (AID 1053143); format: functional
H4 = test: Luminescence Cell-Based Dose Response HTS to Identify Activators of 5'UTR Stem-Loop Driven Prion Protein mRNA Translation in H4 Neuroglioblastoma Cells. [Related pubchem assays: 1829 (Project Summary), 1814 (Primary HTS)]; format: functional; details: Homo sapiens
[3] = Luminescence Cell-Based Dose Retest to Confirm Inhibitors of Cancer Stem Cells. [Related pubchem assays (depositor defined):AID2717, AID2721]; format: functional; details: Homo sapiens
[4] = viability loss of HMLE_sh_eGFP cells – cell-based, luminescence, counter-screen for HMLE_sh_ECad selective toxicity project, dose response (AID 463074); format: functional, Homo sapiens;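 further: HMLE human mammary epithelial cells expressing control shRNA against eGFP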
Cytochrome P450 2D6 = Cytochrome P450 2D6 (Homo sapiens, UniProt P10635);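 further: CYP2D6 member of a cytochrome P450 panel assay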
Cytochrome P450 2C19 = Cytochrome P450 2C19 (Homo sapiens, UniProt P33261); test: Cytochrome panel assay with activity outcomes. Panel member name: p450-cyp2c19 Compounds with AC50 equal or less than 10 uM are considered active; format: functional; details: read-out: AC50
cells [5] = format: functional, cell-based
Cytochrome P450 2C9 = Cytochrome P450 2C9 (Homo sapiens, UniProt P11712)
Coagulation factor XII = Coagulation factor XII (Homo sapiens, UniProt P00748); format: functional;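 further: activated factor XIIa alpha cleaving a fluorogenic AMC peptide substrate; inhibitor potency from loss of enzyme activity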
[6] = molecular target: FAD-linked sulfhydryl oxidase ALR (Homo sapiens, UniProt P55789); test: ALR-catalysed DTT oxidation blockers – biochemical, H2O2 detection, luminescence, cherry-pick, dose response (AID 493248)
cells [7] = format: functional, cell-based; remark: listed apart in the source
[8] = molecular target: T1, Tyrosine-protein phosphatase non-receptor type 22 (Homo sapiens, UniProt Q9Y2R2); format: functional
T1 sequence (Q9Y2R2 whole entry): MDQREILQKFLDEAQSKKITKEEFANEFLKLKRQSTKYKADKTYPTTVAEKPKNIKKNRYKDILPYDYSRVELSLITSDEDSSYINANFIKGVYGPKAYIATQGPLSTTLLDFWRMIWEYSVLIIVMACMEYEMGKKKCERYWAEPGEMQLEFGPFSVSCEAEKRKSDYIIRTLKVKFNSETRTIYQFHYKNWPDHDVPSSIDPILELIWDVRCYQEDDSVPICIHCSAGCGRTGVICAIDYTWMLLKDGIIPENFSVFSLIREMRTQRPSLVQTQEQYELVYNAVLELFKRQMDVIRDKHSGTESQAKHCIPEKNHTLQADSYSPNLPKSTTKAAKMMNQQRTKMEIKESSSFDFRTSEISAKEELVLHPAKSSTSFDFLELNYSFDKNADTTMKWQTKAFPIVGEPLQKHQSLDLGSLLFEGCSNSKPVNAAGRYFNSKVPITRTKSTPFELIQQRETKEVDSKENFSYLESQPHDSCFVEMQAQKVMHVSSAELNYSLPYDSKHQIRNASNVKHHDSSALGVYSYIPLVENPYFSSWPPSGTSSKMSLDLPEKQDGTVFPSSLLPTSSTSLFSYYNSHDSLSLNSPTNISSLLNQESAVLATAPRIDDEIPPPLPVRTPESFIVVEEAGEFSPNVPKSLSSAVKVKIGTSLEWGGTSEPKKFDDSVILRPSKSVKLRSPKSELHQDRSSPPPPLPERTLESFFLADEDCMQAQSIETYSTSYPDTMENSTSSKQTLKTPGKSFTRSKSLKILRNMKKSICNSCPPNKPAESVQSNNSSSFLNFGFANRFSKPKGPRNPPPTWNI

[9] = molecular target: T1, Tyrosine-protein phosphatase non-receptor type 22; format: functional; remark: listed apart in the source
[10] = molecular target: T2, Tyrosine-protein phosphatase non-receptor type 7 (Homo sapiens, UniProt P35236); format: functional
T2 sequence (P35236 whole entry): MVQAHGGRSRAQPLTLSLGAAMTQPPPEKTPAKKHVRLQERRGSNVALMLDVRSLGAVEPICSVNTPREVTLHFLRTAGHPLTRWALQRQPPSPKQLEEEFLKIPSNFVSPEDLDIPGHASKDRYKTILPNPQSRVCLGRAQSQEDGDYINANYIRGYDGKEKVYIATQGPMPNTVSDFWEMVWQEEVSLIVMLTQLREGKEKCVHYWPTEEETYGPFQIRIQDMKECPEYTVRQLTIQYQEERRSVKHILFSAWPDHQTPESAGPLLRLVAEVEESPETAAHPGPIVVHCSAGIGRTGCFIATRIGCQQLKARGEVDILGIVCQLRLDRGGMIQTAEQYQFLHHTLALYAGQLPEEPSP

[11] = loss of viability in HepG2 cells – cell-based, CellTiter-Glo, cherry-picked, cytotoxicity control for Shn3 inhibitor project, dose response (AID 624134); format: functional
[12] = reduction of Shn3 3'UTR-driven luciferase in osteoblasts – cell-based, Clone20 osteoblasts, firefly luciferase, cherry-picked, dose response (AID 624132); format: functional;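 further: firefly luciferase luminescence from reporter carrying the Shn3 3'UTR in osteoblasts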
Protein Wnt-3a = Protein Wnt-3a (Mus musculus, UniProt P27467); test: antagonism of Wnt3a pathway luciferase reporter – Wnt-LIGHT cells, luminescence, selectivity assay for Gli-SUFU antagonist project, dose response (AID 651570); format: functional; details: read-out: IC50_Mean;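 further: Wnt-LIGHT reporter cells stimulated with conditioned medium from Wnt3a-producing cells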
[13] = non-specific 3'UTR reporter inhibition in Clone20-Shn3RL – cell-based, Renilla luciferase, cherry-picked, counter-screen for Shn3 inhibitor project, dose response (AID 624133); format: functional
[14] = decrease of insulin promoter-GFP reporter – imaging, high-content screening, mouse beta cells (AID 1628); format: functional; details: MIN6
[15] = MIN6 cell viability loss – mouse insulinoma, cytotoxicity control, dose response (AID 2122); format: functional;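 further: confirmatory high-throughput counterscreen run to flag cytotoxic compounds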
[16] = molecular target: T3, Orexin/Hypocretin receptor type 1 (Homo sapiens, UniProt O43613); test: Homogeneous Time Resolved Fluorescence (HTRF)-based cell-based high throughput dose response assay for antagonists of the orexin 1 receptor (OX1R; HCRTR1). [Related pubchem assays (depositor defined):AID434989, AID435008, AID463079, AID485270, AID492963, AID492964, AID492965, AID493232, AID504717, AID504718]; format: functional
T3 sequence (O43613 whole entry): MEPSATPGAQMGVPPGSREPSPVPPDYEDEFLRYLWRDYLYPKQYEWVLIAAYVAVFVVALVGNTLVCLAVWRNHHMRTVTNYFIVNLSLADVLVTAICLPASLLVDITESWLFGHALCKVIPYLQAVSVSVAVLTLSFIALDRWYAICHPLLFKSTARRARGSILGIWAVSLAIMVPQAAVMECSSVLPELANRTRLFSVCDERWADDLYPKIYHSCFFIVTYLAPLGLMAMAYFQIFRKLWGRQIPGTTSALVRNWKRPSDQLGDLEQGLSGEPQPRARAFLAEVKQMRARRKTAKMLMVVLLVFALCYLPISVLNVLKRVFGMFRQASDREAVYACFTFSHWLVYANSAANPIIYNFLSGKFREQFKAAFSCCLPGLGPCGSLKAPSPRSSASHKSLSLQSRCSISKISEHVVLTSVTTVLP

[17] = molecular target: T3, Orexin/Hypocretin receptor type 1; test: Fluorescence-based cell-based high throughput dose response assay for antagonists of the orexin 1 receptor (OX1R; HCRTR1). [Related pubchem assays (depositor defined):AID434989, AID435008, AID463079, AID485270, AID492963, AID492964, AID492965, AID493232, AID504717, AID504718]; format: functional
CHO-K1 = test: (§1) Counterscreen for antagonists of the orexin 1 receptor (OX1R; HCRTR1): Homogeneous time resolved fluorescence (HTRF)-based cell-based dose response assay to identify antagonists of the parental CHO-K1 cell line. [Related pubchem assays (depositor defined):AID434989, AID435008, AID463079, AID485270, AID492963, AID492964, AID492965, AID493232, AID504699, AID504701]; format: functional; details: Cricetulus griseus
[18] = as §1, with “Fluorescence-based” for “Homogeneous time resolved fluorescence (HTRF)-based”, “cell-based high throughput” for “cell-based”, “CHO” for “CHO-K1”; format: functional
[19] = molecular target: T4, Alkaline phosphatase, tissue-nonspecific isozyme (Homo sapiens, UniProt P05186)
T4 sequence (P05186 whole entry): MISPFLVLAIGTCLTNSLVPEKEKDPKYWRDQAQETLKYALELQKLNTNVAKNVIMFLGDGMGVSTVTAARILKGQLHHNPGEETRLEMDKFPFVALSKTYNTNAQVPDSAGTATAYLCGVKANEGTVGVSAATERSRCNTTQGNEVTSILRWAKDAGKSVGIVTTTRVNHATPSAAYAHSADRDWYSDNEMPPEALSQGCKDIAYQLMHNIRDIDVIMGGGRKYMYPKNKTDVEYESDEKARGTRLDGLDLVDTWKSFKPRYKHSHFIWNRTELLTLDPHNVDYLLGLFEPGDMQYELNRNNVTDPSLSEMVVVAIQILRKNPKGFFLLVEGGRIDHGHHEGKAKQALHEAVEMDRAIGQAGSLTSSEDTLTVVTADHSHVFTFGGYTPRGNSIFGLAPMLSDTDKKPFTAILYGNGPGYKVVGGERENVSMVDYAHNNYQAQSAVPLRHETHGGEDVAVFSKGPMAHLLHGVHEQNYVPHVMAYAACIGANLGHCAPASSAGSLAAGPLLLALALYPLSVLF

[20] = molecular target: T5, Polyadenylate-binding protein 1 (Homo sapiens, UniProt P11940); test: MLLE domain peptide-binding blockers, IC50 – biochemical, fluorescence polarization, FITC-PAM2 peptide, dose response (AID 602259); format: functional; details: read-out: IC50_Mean
[21] = molecular target: T5, Polyadenylate-binding protein 1; test: MLLE binding blockers, Cy5 peptide tracer – biochemical, fluorescence polarization, Cy5-PAM2 peptide, secondary, miRNA deadenylation inhibitor project, dose response (AID 602260); format: functional; details: read-out: IC50_Mean
Mu-type opioid receptor = Mu-type opioid receptor (Homo sapiens, UniProt P35372); test: (§2) Counterscreen for agonists of heterodimerization of the mu 1 (OPRM1) and delta 1 (OPRD1) opioid receptors: Luminescence-based cell-based high throughput dose response assay to identify agonists of OPRM1 homodimerization.; format: functional
[22] = molecular target: Delta-type opioid receptor (Homo sapiens, UniProt P41143); test: as §2, with “of OPRD1” for “of OPRM1”, “homodimerization. [Related pubchem assays (depositor defined):AID504326, AID504355, AID504692, AID504904, AID504905]” for “homodimerization.”; format: functional
[23] = molecular target: 5-hydroxytryptamine receptor 5A (Homo sapiens, UniProt P47898); test: Counterscreen for agonists of OPRM1-OPRD1 heterodimerization: luminescence-based cell-based high throughput dose response assay to identify agonists of 5-hydroxytryptamine (serotonin) 5A receptor (HTR5A). [Related pubchem assays (depositor defined):AID504326, AID504355, AID504692, AID504904, AID504905]; format: functional
Chain of 5-hydroxytryptamine receptor 5A (P47898 whole entry): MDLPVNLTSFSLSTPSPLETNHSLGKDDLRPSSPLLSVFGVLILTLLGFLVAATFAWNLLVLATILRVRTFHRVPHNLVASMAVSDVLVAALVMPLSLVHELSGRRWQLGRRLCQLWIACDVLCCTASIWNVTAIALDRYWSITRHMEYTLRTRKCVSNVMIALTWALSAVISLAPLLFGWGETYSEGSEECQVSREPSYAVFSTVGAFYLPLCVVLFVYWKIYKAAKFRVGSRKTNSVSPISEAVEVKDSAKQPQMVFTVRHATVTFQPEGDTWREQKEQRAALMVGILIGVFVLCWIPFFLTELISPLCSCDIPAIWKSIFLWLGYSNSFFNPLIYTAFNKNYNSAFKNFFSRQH

T5 sequence (P11940 whole entry, the tested form may be a part): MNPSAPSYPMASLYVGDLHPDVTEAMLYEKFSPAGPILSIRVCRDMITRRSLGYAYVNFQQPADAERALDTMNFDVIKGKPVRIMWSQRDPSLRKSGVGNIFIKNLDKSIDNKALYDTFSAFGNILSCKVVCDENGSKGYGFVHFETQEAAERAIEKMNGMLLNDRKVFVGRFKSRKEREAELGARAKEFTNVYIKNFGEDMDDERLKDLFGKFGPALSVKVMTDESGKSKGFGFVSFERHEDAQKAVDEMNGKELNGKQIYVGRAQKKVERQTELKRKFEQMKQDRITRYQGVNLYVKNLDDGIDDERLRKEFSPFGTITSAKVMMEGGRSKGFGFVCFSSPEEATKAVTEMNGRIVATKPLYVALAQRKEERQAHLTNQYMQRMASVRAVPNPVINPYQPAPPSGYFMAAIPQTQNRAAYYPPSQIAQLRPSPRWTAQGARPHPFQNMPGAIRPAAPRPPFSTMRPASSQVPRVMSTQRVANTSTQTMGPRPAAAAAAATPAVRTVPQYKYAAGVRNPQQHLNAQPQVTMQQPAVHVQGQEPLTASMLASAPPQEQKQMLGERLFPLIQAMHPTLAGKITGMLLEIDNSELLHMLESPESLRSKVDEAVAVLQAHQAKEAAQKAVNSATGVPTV
Chain of Cytochrome P450 2D6 (P10635 whole entry): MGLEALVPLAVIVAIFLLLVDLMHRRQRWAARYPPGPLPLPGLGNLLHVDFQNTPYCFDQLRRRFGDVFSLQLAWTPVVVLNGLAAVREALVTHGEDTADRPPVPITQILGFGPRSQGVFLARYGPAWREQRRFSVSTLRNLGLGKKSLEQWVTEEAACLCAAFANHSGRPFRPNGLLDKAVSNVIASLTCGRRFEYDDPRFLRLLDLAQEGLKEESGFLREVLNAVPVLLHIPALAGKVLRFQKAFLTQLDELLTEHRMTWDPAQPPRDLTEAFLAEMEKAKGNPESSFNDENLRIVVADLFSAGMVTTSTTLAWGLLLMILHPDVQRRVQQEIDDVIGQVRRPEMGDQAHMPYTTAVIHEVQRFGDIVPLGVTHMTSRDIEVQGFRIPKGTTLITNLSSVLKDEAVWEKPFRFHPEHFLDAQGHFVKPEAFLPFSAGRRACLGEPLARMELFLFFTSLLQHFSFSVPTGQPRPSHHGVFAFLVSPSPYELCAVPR
Chain of Mu-type opioid receptor (P35372 whole entry): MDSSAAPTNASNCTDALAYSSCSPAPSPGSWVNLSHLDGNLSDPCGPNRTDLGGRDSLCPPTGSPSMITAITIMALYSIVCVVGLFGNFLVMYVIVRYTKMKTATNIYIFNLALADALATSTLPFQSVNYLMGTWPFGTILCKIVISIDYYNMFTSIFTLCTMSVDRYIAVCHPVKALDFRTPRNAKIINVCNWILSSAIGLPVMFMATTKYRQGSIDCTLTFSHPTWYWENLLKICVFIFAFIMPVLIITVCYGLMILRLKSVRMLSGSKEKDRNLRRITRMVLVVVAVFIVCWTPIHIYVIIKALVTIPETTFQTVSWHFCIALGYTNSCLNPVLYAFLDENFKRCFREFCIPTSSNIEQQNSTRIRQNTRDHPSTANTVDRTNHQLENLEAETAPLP
Chain of FAD-linked sulfhydryl oxidase ALR (P55789 whole entry): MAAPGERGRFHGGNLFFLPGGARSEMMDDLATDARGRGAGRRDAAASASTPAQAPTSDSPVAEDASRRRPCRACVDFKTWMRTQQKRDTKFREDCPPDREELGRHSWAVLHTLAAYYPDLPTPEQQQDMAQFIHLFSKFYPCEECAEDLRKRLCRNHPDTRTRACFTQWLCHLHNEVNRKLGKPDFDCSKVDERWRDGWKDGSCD
Chain of Cytochrome P450 2C19 (P33261 whole entry): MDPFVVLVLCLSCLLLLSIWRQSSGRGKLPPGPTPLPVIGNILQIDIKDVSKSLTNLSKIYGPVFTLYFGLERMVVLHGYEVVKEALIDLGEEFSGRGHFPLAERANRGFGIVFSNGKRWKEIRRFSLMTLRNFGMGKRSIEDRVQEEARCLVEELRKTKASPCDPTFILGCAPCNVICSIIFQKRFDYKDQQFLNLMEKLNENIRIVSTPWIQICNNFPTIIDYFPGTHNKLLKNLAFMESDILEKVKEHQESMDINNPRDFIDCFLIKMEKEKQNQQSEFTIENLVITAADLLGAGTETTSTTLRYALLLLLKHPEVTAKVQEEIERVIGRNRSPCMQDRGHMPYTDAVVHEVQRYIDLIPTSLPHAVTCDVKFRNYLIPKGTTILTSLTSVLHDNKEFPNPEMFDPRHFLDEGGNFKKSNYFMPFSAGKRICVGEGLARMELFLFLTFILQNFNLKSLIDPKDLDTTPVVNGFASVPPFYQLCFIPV
Chain of Coagulation factor XII (P00748 20-372 limits assumed): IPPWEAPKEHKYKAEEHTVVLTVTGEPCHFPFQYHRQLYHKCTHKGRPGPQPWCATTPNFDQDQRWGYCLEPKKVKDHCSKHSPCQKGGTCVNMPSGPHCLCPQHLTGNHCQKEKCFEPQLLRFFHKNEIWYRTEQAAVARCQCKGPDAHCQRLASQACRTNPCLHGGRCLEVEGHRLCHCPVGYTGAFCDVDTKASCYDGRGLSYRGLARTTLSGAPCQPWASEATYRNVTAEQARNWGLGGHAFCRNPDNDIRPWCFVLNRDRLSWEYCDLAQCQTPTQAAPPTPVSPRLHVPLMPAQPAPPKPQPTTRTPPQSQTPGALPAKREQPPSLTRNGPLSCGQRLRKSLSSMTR
Chain of Coagulation factor XII (P00748 373-615 limits assumed): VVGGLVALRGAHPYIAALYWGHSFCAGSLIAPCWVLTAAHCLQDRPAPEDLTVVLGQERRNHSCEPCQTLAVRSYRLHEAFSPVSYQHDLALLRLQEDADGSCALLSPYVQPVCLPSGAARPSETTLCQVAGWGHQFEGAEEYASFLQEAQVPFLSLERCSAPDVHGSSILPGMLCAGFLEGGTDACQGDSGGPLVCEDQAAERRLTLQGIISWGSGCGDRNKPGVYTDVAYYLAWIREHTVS
Chain of Protein Wnt-3a (P27467 whole entry): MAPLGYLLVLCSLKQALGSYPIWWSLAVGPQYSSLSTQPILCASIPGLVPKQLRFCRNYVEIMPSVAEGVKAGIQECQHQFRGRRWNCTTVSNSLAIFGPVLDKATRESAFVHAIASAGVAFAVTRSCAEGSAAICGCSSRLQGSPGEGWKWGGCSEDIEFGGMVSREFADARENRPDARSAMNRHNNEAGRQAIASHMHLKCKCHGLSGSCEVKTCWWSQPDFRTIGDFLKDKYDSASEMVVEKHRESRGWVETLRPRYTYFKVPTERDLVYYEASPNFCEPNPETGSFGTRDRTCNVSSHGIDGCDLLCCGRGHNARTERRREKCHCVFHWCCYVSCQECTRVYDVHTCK
Chain of Delta-type opioid receptor (P41143 whole entry): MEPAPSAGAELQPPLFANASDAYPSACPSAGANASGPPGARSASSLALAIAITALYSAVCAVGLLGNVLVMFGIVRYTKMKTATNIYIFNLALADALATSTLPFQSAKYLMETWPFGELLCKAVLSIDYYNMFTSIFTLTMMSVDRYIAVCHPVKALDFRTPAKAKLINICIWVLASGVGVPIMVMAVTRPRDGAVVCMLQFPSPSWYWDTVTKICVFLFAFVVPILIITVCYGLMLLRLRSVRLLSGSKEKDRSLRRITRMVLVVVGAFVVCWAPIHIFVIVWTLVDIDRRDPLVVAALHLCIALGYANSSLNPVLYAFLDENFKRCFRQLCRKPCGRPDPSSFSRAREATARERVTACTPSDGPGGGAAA
Chain of Cytochrome P450 2C9 (P11712 whole entry): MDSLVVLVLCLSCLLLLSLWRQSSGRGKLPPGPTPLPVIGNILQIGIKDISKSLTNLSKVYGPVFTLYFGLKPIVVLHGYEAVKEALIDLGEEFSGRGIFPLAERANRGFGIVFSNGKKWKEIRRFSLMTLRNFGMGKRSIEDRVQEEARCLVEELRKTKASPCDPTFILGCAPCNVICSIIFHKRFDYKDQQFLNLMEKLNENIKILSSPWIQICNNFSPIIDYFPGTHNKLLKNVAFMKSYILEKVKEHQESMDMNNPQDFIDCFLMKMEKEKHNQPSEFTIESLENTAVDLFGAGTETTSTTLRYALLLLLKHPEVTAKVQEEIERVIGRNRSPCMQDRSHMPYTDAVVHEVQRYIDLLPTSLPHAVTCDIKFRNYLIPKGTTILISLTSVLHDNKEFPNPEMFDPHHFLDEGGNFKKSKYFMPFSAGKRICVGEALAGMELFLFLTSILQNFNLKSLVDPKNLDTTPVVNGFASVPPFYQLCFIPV

Cc1oc(=O)c(NC(=O)c2cccc(Cl)c2)cc1C(=O)c1ccccc1
EC50 [1]: 6.62 µM (active)
AC50 [2]: 26 µM (active)
EC50 (H4): 90.8 µM (active)
AC50 [3]: 16.4 µM (active)
AC50 [4]: 21.7 µM (active)

C[N+]1(CCC(=O)c2ccco2)C[C@H]2CC[C@H](CC2)C1 (some centres undefined)
AC50 (Cytochrome P450 2D6): inconclusive

Cc1ccc(/C=N\Nc2nc3cc(Cl)ccc3[nH]2)o1
AC50 (Cytochrome P450 2C19): 28.2 µM (inconclusive)
EC50 (cells [5]): > 350 µM (not active)
AC50 (Cytochrome P450 2C9): 7.08 µM (inconclusive)
IC50 (Coagulation factor XII): > 50 µM (inactive)
AC50 [6]: 0.289 µM (active)
EC50 (cells [7]): 27.6 µM (active)

Cc1ccsc1/C=C1/SC(=O)N(CC(=O)N2CCOCC2)C1=O
AC50 (Cytochrome P450 2D6): inconclusive

CCOC(=O)CC1(NC(=O)c2cc(COc3cncc(Cl)c3)on2)CCCCC1
IC50 [8]: > 79.4 µM (inactive)
IC50 [9]: > 79.4 µM (inactive)
IC50 [10]: > 79.4 µM (inactive)

CCc1c(C)nc2ncnn2c1N1CCN(S(=O)(=O)c2ccc(OC)cc2)CC1
AC50 [11]: 5.28 µM (active)
AC50 [12]: 1.16 µM (active)
IC50 (Protein Wnt-3a): 5.74 µM (active)
AC50 [13]: 3.52 µM (active)
IC50 [14]: 1.35 µM (active)
IC50 [15]: 0.936 µM (active)

C[C@@H]1CN([C@@H](C)CO)C(=O)c2cccc(NC(=O)Nc3ccc(F)cc3)c2O[C@@H]1CN(C)Cc1ccc(Oc2ccccc2)cc1
IC50 [16]: > 66.2 µM (inactive)
IC50 [17]: 11.2 µM (inactive)
IC50 (CHO-K1): > 66.2 µM (inactive)
IC50 [18]: 23.7 µM (inactive)

COCCNC(=S)N/N=C(\C)c1ccccc1O
EC50 [19]: 70.7 µM (not active)
IC50 [14]: 2.44 µM (active)
IC50 [15]: 1.01 µM (active)
IC50 [20]: > 66 µM (inactive)
IC50 [21]: > 66 µM (inactive)

O=C(NCCc1ccc(Cl)cc1)C1CCC(CNc2nc(=S)[nH]c3ccccc23)CC1 (centres undefined)
EC50 (Mu-type opioid receptor): > 92.5 µM (inactive)
EC50 [22]: > 92.5 µM (inactive)
EC50 [23]: > 92.5 µM (inactive)
